These results are taken from patent publication US20150376198A1, “MODULATORS OF VASOPRESSIN RECEPTORS WITH THERAPEUTIC POTENTIAL” (priority 2013, published 2015).

As usually defined, the IC50 is the concentration needed to halve the response being measured.

Sequence of human Arginine Vasopressin Receptor 1a (AVPR1a) (P37288 whole entry): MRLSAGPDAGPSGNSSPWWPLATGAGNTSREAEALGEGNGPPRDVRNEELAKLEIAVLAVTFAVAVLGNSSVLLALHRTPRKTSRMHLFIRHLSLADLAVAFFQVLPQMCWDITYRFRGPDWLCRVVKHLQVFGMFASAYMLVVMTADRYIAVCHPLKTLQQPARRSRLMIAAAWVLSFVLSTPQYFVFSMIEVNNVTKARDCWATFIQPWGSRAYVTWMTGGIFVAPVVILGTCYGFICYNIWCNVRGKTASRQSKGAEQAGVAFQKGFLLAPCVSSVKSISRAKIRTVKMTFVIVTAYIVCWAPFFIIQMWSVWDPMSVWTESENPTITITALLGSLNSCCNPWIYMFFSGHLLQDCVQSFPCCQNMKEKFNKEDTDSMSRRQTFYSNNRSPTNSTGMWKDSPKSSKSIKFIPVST

The first assay has as its target human Arginine Vasopressin Receptor 1a (AVPR1a) (Homo sapiens, UniProt P37288). As to the kind of experiment: cell-based.
Details: not given
On to `N#CC1(c2ccccc2)CCN(C(=O)N2CCCCc3cc(Cl)ccc32)CC1` [Compound 134], for which the IC50 was 358 nM.

`O=C(C1CCN(c2ncccc2F)CC1)N(CC1CC1)c1ccc(Cl)cc1` [Compound 140] showed an IC50 of 15 nM.

With `O=C(C1CCN(c2ccc(Cl)cn2)CC1)N(CC1CC1)c1ccc(Cl)cc1` [Compound 141], half-maximal inhibition (IC50) required 40 nM.

Take `O=C(C1CCN(c2ccc(F)cn2)CC1)N(CC1CC1)c1ccc(Cl)cc1` [Compound 146]: the IC50 stood at 24 nM.

On to `Cc1ccc(N2CCC(C(=O)N(CC3CC3)c3ccc(Cl)cc3)CC2)nc1` [Compound 149], for which the IC50 came to 20 nM.

Staying with this assay, now noted: read-out: V1a-R IC50.
Consider `CCC(CC)C(=O)N1CCC(C(=O)N2CCCCc3cc(Cl)ccc32)CC1` [Compound 79], for which the IC50 worked out at 5400 nM.

Take `Cc1noc(C)c1C(=O)N1CCC(C(=O)N2CCCCc3cc(Cl)ccc32)CC1` [Compound 80]: the half-maximal inhibitory concentration (IC50) came out at 15100 nM.

`O=C(C1CCN(C(=O)C23CC4CC(CC(C4)C2)C3)CC1)N1CCCCc2cc(Cl)ccc21` [Compound 81]: the IC50 was determined as 8080 nM.

With `CC(C)(C)C(=O)N1CCC(C(=O)N2CCCCc3cc(Cl)ccc32)CC1` [Compound 82], the IC50 amounted to 2490 nM.

For the molecule `O=C(c1ccccc1)N1CCC(C(=O)N2CCCCc3cc(Cl)ccc32)CC1` [Compound 83], the IC50 is 1820 nM.

Turning to `O=C(c1ccccc1F)N1CCC(C(=O)N2CCCCc3cc(Cl)ccc32)CC1` [Compound 84], the IC50 was found to be 1490 nM.

Regarding `COc1ccc(C(=O)N2CCC(C(=O)N3CCCCc4cc(Cl)ccc43)CC2)cc1` [Compound 85], the IC50 turned out to be 1780 nM.

For the molecule `O=C(c1ccc(Cl)cc1)N1CCC(C(=O)N2CCCCc3cc(Cl)ccc32)CC1` [Compound 86], the IC50 was 835 nM.

Take `O=C(c1ccc(C(F)(F)F)cc1)N1CCC(C(=O)N2CCCCc3cc(Cl)ccc32)CC1` [Compound 87]: the IC50 came to 1870 nM.

In the case of `O=C(c1cccc(C(F)(F)F)c1)N1CCC(C(=O)N2CCCCc3cc(Cl)ccc32)CC1` [Compound 88], the IC50 stood at 595 nM.

As to `O=C(c1ccc(Cl)cc1Cl)N1CCC(C(=O)N2CCCCc3cc(Cl)ccc32)CC1` [Compound 89], the IC50 came to 1800 nM.

With `O=C(c1ccc(F)c(F)c1)N1CCC(C(=O)N2CCCCc3cc(Cl)ccc32)CC1` [Compound 90], the IC50 came to 1520 nM.

As to `O=C(c1cccc(F)c1F)N1CCC(C(=O)N2CCCCc3cc(Cl)ccc32)CC1` [Compound 91], the IC50 stood at 1860 nM.

Turning to `O=C(c1c(F)cccc1F)N1CCC(C(=O)N2CCCCc3cc(Cl)ccc32)CC1` [Compound 92], the IC50 came out at 1720 nM.

In the case of `O=C(c1ccncc1)N1CCC(C(=O)N2CCCCc3cc(Cl)ccc32)CC1` [Compound 93], the IC50 stood at 5810 nM.

For `O=C(C1CCN(c2ccccn2)CC1)N1CCCCc2cc(Cl)ccc21` [Compound 109], the IC50 was determined as 5 nM.

As to `O=C(C1CCN(c2ncccn2)CC1)N1CCCCc2cc(Cl)ccc21` [Compound 110], the IC50 turned out to be 207 nM.

Regarding `N#Cc1cccnc1N1CCC(C(=O)N2CCCCc3cc(Cl)ccc32)CC1` [Compound 111], the IC50 amounted to 130 nM.

`N#Cc1ccc(N2CCC(C(=O)N3CCCCc4cc(Cl)ccc43)CC2)nc1` [Compound 112]: the IC50 is 1230 nM.

Regarding `N#Cc1ccc(C(=O)N2CCC(C(=O)N3CCCCc4cc(Cl)ccc43)CC2)cc1` [Compound 113], the IC50 stood at 5760 nM.

As to `N#Cc1ccc(C(=O)N2CCC(C(=O)N3CCCCc4cc(Cl)ccc43)CC2)c(F)c1` [Compound 114], the IC50 is 9480 nM.

For `N#Cc1cc(C(=O)N2CCC(C(=O)N3CCCCc4cc(Cl)ccc43)CC2)ccc1F` [Compound 115], the IC50 was 5280 nM.

For `O=C(c1cc(F)cc(F)c1)N1CCC(C(=O)N2CCCCc3cc(Cl)ccc32)CC1` [Compound 116], the IC50 was 1600 nM.

For `Cc1cncc(C(=O)N2CCC(C(=O)N3CCCCc4cc(Cl)ccc43)CC2)c1` [Compound 117], the IC50 worked out at 1160 nM.

With `CS(=O)(=O)c1ccc(C(=O)N2CCC(C(=O)N3CCCCc4cc(Cl)ccc43)CC2)cc1` [Compound 118], the IC50 amounted to 12900 nM.

Turning to `O=C(c1csc2ccccc12)N1CCC(C(=O)N2CCCCc3cc(Cl)ccc32)CC1` [Compound 119], the IC50 was determined as 621 nM.

As for `O=C(c1c[nH]c2ccccc12)N1CCC(C(=O)N2CCCCc3cc(Cl)ccc32)CC1` [Compound 120], the IC50 is 249 nM.

As to `O=C(c1cc2ccccc2[nH]1)N1CCC(C(=O)N2CCCCc3cc(Cl)ccc32)CC1` [Compound 121], the IC50 worked out at 446 nM.

For `O=C(N1CCN(c2ccccn2)CC1)N1CCCCc2cc(Cl)ccc21` [Compound 122], the IC50 was found to be 80 nM.

In the case of `O=C(N1CCN(c2ncccn2)CC1)N1CCCCc2cc(Cl)ccc21` [Compound 123], the IC50 was 256 nM.

In the case of `Cc1cccnc1N1CCN(C(=O)N2CCCCc3cc(Cl)ccc32)CC1` [Compound 124], the IC50 was determined as 40 nM.

On to `O=C(N1CCN(c2ncccc2Cl)CC1)N1CCCCc2cc(Cl)ccc21` [Compound 125], for which the IC50 worked out at 57 nM.

In the case of `O=C(N1CCN(c2ncccc2C(F)(F)F)CC1)N1CCCCc2cc(Cl)ccc21` [Compound 126], the IC50 worked out at 54 nM.

`O=C(N1CCN(c2nccs2)CC1)N1CCCCc2cc(Cl)ccc21` [Compound 127]: the IC50 was determined as 267 nM.

On to `O=C(N1CCN(c2ccccc2)CC1)N1CCCCc2cc(Cl)ccc21` [Compound 128], for which the IC50 turned out to be 27 nM.

Consider `O=C(N1CCN(c2cc(Cl)cc(Cl)c2)CC1)N1CCCCc2cc(Cl)ccc21` [Compound 129], for which the IC50 was 205 nM.

Consider `Cc1ccc(Cl)cc1N1CCN(C(=O)N2CCCCc3cc(Cl)ccc32)CC1` [Compound 130], for which the IC50 was determined as 279 nM.

For the molecule `O=C(N1CCC(c2ccccc2)CC1)N1CCCCc2cc(Cl)ccc21` [Compound 131], the IC50 is 83 nM.

Take `O=C(N1CCN(c2ccc(C(F)(F)F)cc2)CC1)N1CCCCc2cc(Cl)ccc21` [Compound 132]: the IC50 was found to be 29 nM.

Consider `O=C(N1CCC(O)(c2ccccc2)CC1)N1CCCCc2cc(Cl)ccc21` [Compound 133], for which the IC50 was determined as 137 nM.

For `O=C(N1CCN(c2ccccc2Cl)CC1)N1CCCCc2cc(Cl)ccc21` [Compound 139], the IC50 came out at 35 nM.

For `N#Cc1cccnc1N1CCC(C(=O)N(CC2CC2)c2ccc(Cl)cc2)CC1` [Compound 142], the IC50 came out at 67 nM.

Take `O=C(C1CCN(c2ncccc2C(F)(F)F)CC1)N(CC1CC1)c1ccc(Cl)cc1` [Compound 143]: the IC50 came to 84 nM.

Turning to `O=C(C1CCN(c2ncccc2Cl)CC1)N(CC1CC1)c1ccc(Cl)cc1` [Compound 144], the IC50 worked out at 23 nM.

As to `O=C(C1CCN(c2ccc(C(F)(F)F)cn2)CC1)N(CC1CC1)c1ccc(Cl)cc1` [Compound 145], the IC50 came out at 123 nM.

Regarding `Cc1cccnc1N1CCC(C(=O)N(CC2CC2)c2ccc(Cl)cc2)CC1` [Compound 147], the IC50 was 7 nM.

With `Cc1ccnc(N2CCC(C(=O)N(CC3CC3)c3ccc(Cl)cc3)CC2)c1` [Compound 148], the IC50 was 3 nM.

As to `Cc1cccc(N2CCC(C(=O)N(CC3CC3)c3ccc(Cl)cc3)CC2)n1` [Compound 150], the IC50 was found to be 23 nM.

With `Cc1cc(C)nc(N2CCC(C(=O)N(CC3CC3)c3ccc(Cl)cc3)CC2)n1` [Compound 151], the IC50 was 8 nM.

With `O=C(C1CCN(c2cnccn2)CC1)N(CC1CC1)c1ccc(Cl)cc1` [Compound 152], the IC50 was 45 nM.

Turning to `N#Cc1ccc(N2CCC(C(=O)N(CC3CC3)c3ccc(Cl)cc3)CC2)nc1` [Compound 153], the IC50 is 800 nM.

Turning to `O=C(C1CCN(c2ccccn2)CC1)N(CC1CC1)c1ccc(Cl)cc1` [Compound 154], the IC50 is 15 nM.

Consider `O=C(N1CCN(c2ncc(F)cn2)CC1)N(CC1CC1)c1ccc(Cl)cc1` [Compound 155], for which the IC50 came out at 106 nM.

In the case of `Cc1cnc(N2CCN(C(=O)N(CC3CC3)c3ccc(Cl)cc3)CC2)nc1` [Compound 156], the IC50 was 17 nM.

With `O=C(N1CCN(c2ncc(Cl)cn2)CC1)N(CC1CC1)c1ccc(Cl)cc1` [Compound 157], the IC50 came to 206 nM.

For the molecule `Cc1cc(C)nc(N2CCN(C(=O)N(CC3CC3)c3ccc(Cl)cc3)CC2)n1` [Compound 158], the IC50 was found to be 24 nM.

As to `N#Cc1cccnc1N1CCN(C(=O)N(CC2CC2)c2ccc(Cl)cc2)CC1` [Compound 159], the IC50 was 81 nM.

`Cc1cccnc1N1CCN(C(=O)N(CC2CC2)c2ccc(Cl)cc2)CC1` [Compound 160]: the IC50 is 8 nM.

Turning to `Cc1ccnc(N2CCN(C(=O)N(CC3CC3)c3ccc(Cl)cc3)CC2)c1` [Compound 161], the IC50 came to 16 nM.

For `O=C(C1CCN(c2ncc(F)cn2)CC1)N1CCCCc2cc(Cl)ccc21` [Compound 162], the IC50 stood at 35 nM.

For `O=C(C1CCN(c2ncc(Cl)cn2)CC1)N1CCCCc2cc(Cl)ccc21` [Compound 164], the IC50 turned out to be 56 nM.

Regarding `Cc1cc(C)nc(N2CCC(C(=O)N3CCCCc4cc(Cl)ccc43)CC2)n1` [Compound 165], the IC50 came out at 2 nM.

Regarding `Cc1cnc(N2CCC(C(=O)N(CC3CC3)c3ccc(Cl)cc3)CC2)nc1` [Compound 166], the IC50 is 38 nM.

For the molecule `O=C(C1CCN(c2ncc(Cl)cn2)CC1)N(CC1CC1)c1ccc(Cl)cc1` [Compound 167], the IC50 was 195 nM.

In the case of `O=C(C1CCN(c2ncc(F)cn2)CC1)N(CC1CC1)c1ccc(Cl)cc1` [Compound 168], the IC50 amounted to 91 nM.

Consider `Cc1ccnc(N2CCC(C(=O)N(CC3CC3)c3ccc(Cl)cc3)CC2)n1` [Compound 169], for which the IC50 worked out at 51 nM.

Take `N#Cc1ccnc(N2CCC(C(=O)N(CC3CC3)c3ccc(Cl)cc3)CC2)n1` [Compound 170]: the 50% inhibitory concentration (IC50) was 96 nM.

Consider `O=C(C1CCN(c2nccc(C(F)(F)F)n2)CC1)N(CC1CC1)c1ccc(Cl)cc1` [Compound 171], for which the IC50 was determined as 146 nM.

Turning to `COc1ccnc(N2CCC(C(=O)N(CC3CC3)c3ccc(Cl)cc3)CC2)n1` [Compound 172], the IC50 worked out at 17 nM.

Take `N#Cc1ccnc(N2CCC(C(=O)N(CC3CC3)c3ccc(Cl)cc3)CC2)c1` [Compound 173]: the IC50 stood at 63 nM.

Regarding `O=C(C1CCN(c2nccc(C(F)(F)F)n2)CC1)N1CCCCc2cc(Cl)ccc21` [Compound 174], the IC50 turned out to be 82 nM.

`COc1ccnc(N2CCC(C(=O)N3CCCCc4cc(Cl)ccc43)CC2)n1` [Compound 175]: the IC50 was determined as 11 nM.
